According to PubChem BioAssay AID1963961 (Molecular Pharmacology Branch, DTP, NCI, 2024):
“And” between values parts separate entries of the source, which are not always exact repeats. Identical values can stand only once.

System: K98450-129-R-PDC multicell spheroids, viability
Assay: Anticancer human tumor K98450-129-R-PDC patient-derived colon adenocarcinoma cell line growth inhibition [PI3K]
Settings: for viability, T/C: stronger effect = lower value
How it was run: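 Tumor cells were combined with HUVEC and MSCs into spheroids, then dosed with PI3K-inhibitor combinations over half-log ranges capped near clinical Cmax or 10 microM.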

[1] = curve of first compound, second compound 0.00316 µM
[2] = curve of first compound, second compound 0.01 µM
[3] = curve of first compound, second compound 0.0316 µM
[4] = curve of first compound, second compound 0.1 µM
[5] = curve of first compound, second compound 0.316 µM
[6] = curve of first compound, second compound 1 µM
[7] = second compound 0.00316 µM, first compound 0.0316 µM
[8] = second compound 0.00316 µM, first compound 0.1 µM
[9] = second compound 0.00316 µM, first compound 0.316 µM
[10] = second compound 0.00316 µM, first compound 1 µM
[11] = second compound 0.00316 µM, first compound 3.16 µM
[12] = second compound 0.00316 µM, first compound 10 µM
[13] = second compound 0.01 µM, first compound 0.0316 µM
[14] = second compound 0.01 µM, first compound 0.1 µM
[15] = second compound 0.01 µM, first compound 0.316 µM
[16] = second compound 0.01 µM, first compound 1 µM
[17] = second compound 0.01 µM, first compound 3.16 µM
[18] = second compound 0.01 µM, first compound 10 µM
[19] = second compound 0.0316 µM, first compound 0.0316 µM
[20] = second compound 0.0316 µM, first compound 0.1 µM
[21] = second compound 0.0316 µM, first compound 0.316 µM
[22] = second compound 0.0316 µM, first compound 1 µM
[23] = second compound 0.0316 µM, first compound 3.16 µM
[24] = second compound 0.0316 µM, first compound 10 µM
[25] = second compound 0.1 µM, first compound 0.0316 µM
[26] = second compound 0.1 µM, first compound 0.1 µM
[27] = second compound 0.1 µM, first compound 0.316 µM
[28] = second compound 0.1 µM, first compound 1 µM
[29] = second compound 0.1 µM, first compound 3.16 µM
[30] = second compound 0.1 µM, first compound 10 µM
[31] = second compound 0.316 µM, first compound 0.0316 µM
[32] = second compound 0.316 µM, first compound 0.1 µM
[33] = second compound 0.316 µM, first compound 0.316 µM
[34] = second compound 0.316 µM, first compound 1 µM
[35] = second compound 0.316 µM, first compound 3.16 µM
[36] = second compound 0.316 µM, first compound 10 µM
[37] = second compound 1 µM, first compound 0.0316 µM
[38] = second compound 1 µM, first compound 0.1 µM
[39] = second compound 1 µM, first compound 0.316 µM
[40] = second compound 1 µM, first compound 1 µM
[41] = second compound 1 µM, first compound 3.16 µM
[42] = second compound 1 µM, first compound 10 µM
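Note: spheroids exposed to agents for seven days before read-out.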

CC1(C)CCC(Nc2ncc(C(F)(F)F)c(-c3c[nH]c4c(P(C)(C)=O)c(C#N)ccc34)n2)CN1 (stereo not drawn) + CC(Nc1ccc2c(c1)OCCn1cc(N3C(=O)OCC3C(F)F)nc1-2)C(N)=O
IC50 [1]: > 10 µM | IC50 [2]: > 10 µM | IC50 [3]: > 10 µM | IC50 [4]: > 10 µM | IC50 [5]: > 10 µM | IC50 [6]: > 10 µM | viability, T/C [7]: 108% | viability, T/C [8]: 103% | viability, T/C [9]: 95.8% | viability, T/C [10]: 67.7% | viability, T/C [11]: 64.1% | viability, T/C [12]: 63.8% | viability, T/C [13]: 116% | viability, T/C [14]: 98.2% | viability, T/C [15]: 92.7% | viability, T/C [16]: 68.9% | viability, T/C [17]: 67.2% | viability, T/C [18]: 62.2% | viability, T/C [19]: 116% | viability, T/C [20]: 109% | viability, T/C [21]: 81.5% | viability, T/C [22]: 66.8% | viability, T/C [23]: 69.3% | viability, T/C [24]: 65.5% | viability, T/C [25]: 105% | viability, T/C [26]: 107% | viability, T/C [27]: 82.6% | viability, T/C [28]: 66.9% | viability, T/C [29]: 67.8% | viability, T/C [30]: 61.2% | viability, T/C [31]: 100% | viability, T/C [32]: 101% | viability, T/C [33]: 85.4% | viability, T/C [34]: 69.3% | viability, T/C [35]: 66.7% | viability, T/C [36]: 60.7% | viability, T/C [37]: 91.9% | viability, T/C [38]: 90.1% | viability, T/C [39]: 79.1% | viability, T/C [40]: 67.5% | viability, T/C [41]: 69.6% | viability, T/C [42]: 60.6%

CC(C)NCC(C(=O)N1CCN(c2ncnc3c2C(C)CC3O)CC1)c1ccc(Cl)cc1 (stereo not drawn)
viability, T/C (compound 0.0316 µM): 94.2% and 100% and 107% (2×) | viability, T/C (compound 0.1 µM): 100% (2×) and 93.4% and 105% | viability, T/C (compound 0.316 µM): 105% [middle of 4 runs] | viability, T/C (compound 1 µM): 106% (2×) and 92.7% and 87.9% | viability, T/C (compound 3.16 µM): 93% [middle of 4 runs] | viability, T/C (compound 10 µM): 99.5% and 102% (2×) and 99.9% | IC50 (curve of compound): > 10 µM

CC1(C)CCC(CN2CCN(c3ccc(C(=O)NS(=O)(=O)c4ccc(NCC5CCOCC5)c([N+](=O)[O-])c4)c(Oc4cnc5[nH]ccc5c4)c3)CC2)=C(c2ccc(Cl)cc2)C1 + COc1c(OCCCN2CCOCC2)ccc2c3n(c(=NC(=O)c4cnc(N)nc4)nc12)CCN3
IC50 [1]: > 10 µM | IC50 [2]: > 10 µM | IC50 [3]: > 10 µM | IC50 [4]: > 10 µM | IC50 [5]: > 10 µM | IC50 [6]: > 10 µM | viability, T/C [7]: 94.9% | viability, T/C [8]: 112% | viability, T/C [9]: 107% | viability, T/C [10]: 96.1% | viability, T/C [11]: 93.7% | viability, T/C [12]: 97.1% | viability, T/C [13]: 125% | viability, T/C [14]: 111% | viability, T/C [15]: 119% | viability, T/C [16]: 104% | viability, T/C [17]: 95.7% | viability, T/C [18]: 86% | viability, T/C [19]: 101% | viability, T/C [20]: 96.3% | viability, T/C [21]: 104% | viability, T/C [22]: 99.6% | viability, T/C [23]: 96.8% | viability, T/C [24]: 85.1% | viability, T/C [25]: 72.8% | viability, T/C [26]: 76.8% | viability, T/C [27]: 91.2% | viability, T/C [28]: 90.5% | viability, T/C [29]: 80.4% | viability, T/C [30]: 72.7% | viability, T/C [31]: 60% | viability, T/C [32]: 48% | viability, T/C [33]: 75.6% | viability, T/C [34]: 60.6% | viability, T/C [35]: 53.5% | viability, T/C [36]: 55.2% | viability, T/C [37]: 49.1% | viability, T/C [38]: 49.6% | viability, T/C [39]: 59.6% | viability, T/C [40]: 54.6% | viability, T/C [41]: 41.4% | viability, T/C [42]: 54.2%

CC1(C)CCC(Nc2ncc(C(F)(F)F)c(-c3c[nH]c4c(P(C)(C)=O)c(C#N)ccc34)n2)CN1 (stereo not drawn) + Cc1nc(NC(=O)N2CCCC2C(N)=O)sc1-c1ccnc(C(C)(C)C(F)(F)F)c1
IC50 [3]: > 10 µM | IC50 [4]: > 10 µM | IC50 [5]: > 10 µM | IC50 [6]: > 10 µM | IC50 (curve of first compound, second compound 3.16 µM): > 10 µM | IC50 (curve of first compound, second compound 10 µM): > 10 µM | viability, T/C [19]: 118% | viability, T/C [20]: 101% | viability, T/C [21]: 94.7% | viability, T/C [22]: 68.7% | viability, T/C [23]: 69.8% | viability, T/C [24]: 64.6% | viability, T/C [25]: 116% | viability, T/C [26]: 104% | viability, T/C [27]: 87.2% | viability, T/C [28]: 67.4% | viability, T/C [29]: 71.1% | viability, T/C [30]: 67.6% | viability, T/C [31]: 104% | viability, T/C [32]: 102% | viability, T/C [33]: 84.7% | viability, T/C [34]: 69% | viability, T/C [35]: 69.7% | viability, T/C [36]: 66.7% | viability, T/C [37]: 103% | viability, T/C [38]: 96.8% | viability, T/C [39]: 85.8% | viability, T/C [40]: 69.6% | viability, T/C [41]: 70% | viability, T/C [42]: 63.4% | viability, T/C (second compound 3.16 µM, first compound 0.0316 µM): 88.1% | viability, T/C (second compound 3.16 µM, first compound 0.1 µM): 95.5% | viability, T/C (second compound 3.16 µM, first compound 0.316 µM): 83% | viability, T/C (second compound 3.16 µM, first compound 1 µM): 67.8% | viability, T/C (second compound 3.16 µM, first compound 3.16 µM): 67.4% | viability, T/C (second compound 3.16 µM, first compound 10 µM): 56.5% | viability, T/C (second compound 10 µM, first compound 0.0316 µM): 81.6% | viability, T/C (second compound 10 µM, first compound 0.1 µM): 85.5% | viability, T/C (second compound 10 µM, first compound 0.316 µM): 70% | viability, T/C (second compound 10 µM, first compound 1 µM): 60.8% | viability, T/C (second compound 10 µM, first compound 3.16 µM): 62.4% | viability, T/C (second compound 10 µM, first compound 10 µM): 50.5%
